This is an account of results in US20260102400A1, “PHARMACEUTICAL COMPOSITION FOR DISRUPTING TUMOR BLOOD VESSELS” (SAMSUNG MEDICAL FOUNDATION, priority 2022, published 2026).

Entries after “also recorded” stand apart in the source; their conditions may differ.

For one series, the system named is TSP-1 protein. Kind of series: Western blot of TSP-1 protein expression in HUVEC. It counts as cell-based, human. Conditions: HUVECs; prolonged exposure and higher 5-FU concentrations; FIG. 3.
The test system of series [1] is HUVECs. Briefly: MTS cell proliferation assay, 5-FU at different pH. In kind it is cell-based, human. Conditions: 5 μM 5-FU, pH 6.4, 7.4, 8.4, 9.0, FIG. 5. (Formazan colour is commonly taken as a measure of viable cells.)
Procedure: To evaluate the cytotoxic effect of 5-fluorouracil (5-FU) in human umbilical vein endothelial cells (HUVECs) under different pH conditions, an MTS cell proliferation assay was performed. The cytotoxicity of 5 μM 5-FU at various pH levels in HUVECs was assessed using the CellTiter 96 AQueous One Solution Cell Proliferation Assay (Promega Corp., Madison, WI, USA).
HUVECs were seeded in a 96-well plate at a density of 5×10^3 cells/well and incubated for 24 hours. Subsequently, the cells were cultured for an additional 24 hours in Dulbecco's Modified Eagle's Medium (DMEM) containing 5-FU at different pH conditions (pH 6.4, 7.4, 8.4, and 9.0). Following the incubation, the cells were washed twice with phosphate-buffered saline (PBS), after which 100 μL of fresh DMEM growth medium was added, followed by an additional 48-hour incubation. The medium was then replaced with 100 μL of fresh DMEM growth medium, and 20 μL of 3-(4,5-dimethylthiazol-2-yl)-5-(3-carboxymethoxyphenyl)-2-(4-sulfophenyl)-2H-tetrazolium (MTS) solution (Promega Corp., Madison, WI, USA) was added. After an additional 2-hour incubation, the absorbance was measured at 490 nm using a microplate reader (Model 680, BIO-RAD; Spark, TECAN, CA, USA).
A short description of series [2]: Pathological changes in subcutaneous muscle layer after injection (H&E). It counts as in vivo, nude mice. Further details: key: 0=absent; 1=mild; 2=moderate; 3=severe. The conditions noted are these: 5 mg pH 8.4 5-FU near the tumor; 24 hours; degeneration, necrosis, inflammation, fibrosis. As to the method:
To observe pathological changes in the surrounding tissue after injecting 5 mg of pH 8.4 5-FU near the tumor, the drug was locally administered to nude mice. After 24 hours, tissues, including muscle layers, were collected and subjected to H&E staining to examine degeneration, necrosis, inflammation, and fibrosis in the muscle layer. The extent of each pathological change was scored as follows: 0=absent, 1=mild, 2=moderate, 3=severe, and the results are shown in FIG. 10A and FIG. 10B. FIG. 10A presents observations at 40× magnification, while FIG. 10B presents observations at 100× magnification.

Series [3] deals with HUVECs. Briefly: LDH release assay in HUVECs. In kind it is cell-based, human. The conditions noted are these: 1 mM, 5 mM and 10 mM 5-FU, P<0.05, FIG. 4. For orientation: LDH in the medium is a marker of cell lysis.
Procedure: To investigate whether the administration of 5-fluorouracil (5-FU) enhances apoptosis in endothelial cells, an LDH release assay was conducted in human umbilical vein endothelial cells (HUVECs). Cytotoxicity was assessed based on the amount of lactate dehydrogenase (LDH) released due to cell membrane damage. The released LDH was quantified using an LDH assay kit (EZ-LDH1000; DoGenBio, Seoul, Korea) according to the manufacturer's protocol.
HUVECs (5×10^4 cells/well) were seeded in a 96-well polystyrene plate and incubated at 37° C. for 24 hours. LDH substrate was added to each well, followed by an additional incubation at 37° C. for 10 minutes. The plate was centrifuged at 600 g for 5 minutes. A 10-μL aliquot of the supernatant was transferred from the culture plate wells to an analysis plate. Subsequently, 100 μL of LDH reaction mixture reagent was added to the supernatant in each well of the analysis plate. After a 30-minute reaction, absorbance was measured at 450 nm using a microplate reader (Model 680; Bio-Rad). The cytotoxicity of 5-FU on HUVECs was determined based on the amount of LDH released.
The subject of another series is CD31. Briefly: CD31 immunohistochemical staining of gastric tumor mass after local injection. Conditions: one week after injection.
The test system of a further series is VEGF. Briefly: VEGF immunohistochemical staining of gastric tumor mass after local injection. Conditions: one week after injection.
Series [4] deals with HUVECs. Conditions: various concentrations of L-NMMA, FIG. 11.
Procedure: HUVECs were seeded at a density of 5×10^3 cells/well in a 96-well plate and incubated for 24 hours. Subsequently, the cells were incubated in DMEM medium containing various concentrations of L-NMMA for 24 hours. The cells were then washed twice with PBS, followed by the addition of 100 μL of fresh growth DMEM medium, and incubated for an additional 48 hours. The medium was replaced with 100 μL of fresh growth DMEM medium, after which 20 μL of 3-(4,5-dimethylthiazol-2-yl)-5-(3-carboxymethoxyphenyl)-2-(4-sulfophenyl)-2H-tetrazolium (MTS) was added. After an additional 2-hour incubation, absorbance at 490 nm was measured using a BIO-RAD Model 680 microplate reader (Spark, TECAN, CA, USA).
For series [5], the system named is human gastric cancer cells. Briefly: Human gastric cancer xenograft, alkaline 5-FU injected adjacent to tumor. In kind it is in vivo, nude mice. Conditions: 5 mg 5-FU pH 8.4, adjacent to tumor, three times at one-week intervals; P<0.05. On the procedure:
The animals used in the experiment were six male nude mice (Crj: BALB/c-nu/nu mice, male) aged five weeks and weighing approximately 30 grams, purchased from Orient. The mice were subjected to a one-week acclimation period in the laboratory before use. Each nude mouse was subcutaneously xenografted with 5×10^6 human gastric cancer cells suspended in 100 μL of PBS on the dorsal subcutaneous layer. The tumor size was periodically measured, and when it reached a diameter of 1 cm, the drug administration experiment was conducted.
The experimental animals were divided into two groups. One group served as the control group, receiving only physiological saline, while the other group was administered 5 mg of 5-FU at pH 8.4. The drug was injected 0.2 cc adjacent to the tumor three times at one-week intervals. After one month, the major and minor axes of the tumors growing on the dorsal epidermis were measured.
On the technique in general: A xenograft is tissue or cells of one species grown in another, often human tumour cells in immunodeficient mice.

The test system of series [6] is human gastric cancer cells. Briefly: Human gastric cancer xenograft, bevacizumab. It counts as in vivo, nude mice. On the procedure: The animals used in the experiment were three male nude mice (Crj: BALB/c-nu/nu, male), each weighing approximately 30 g and five weeks old, produced by Orient. The mice underwent a one-week acclimatization period in the laboratory before use. Human gastric cancer cells (5×10^6 cells/100 μL in PBS) were xenografted into the subcutaneous fat layer on the dorsal side of each nude mouse. The tumor size was measured periodically, and drug administration was initiated when the tumor reached a diameter of 1 cm.
The experimental animals were administered 1 mg of bevacizumab by injecting 0.2 cc adjacent to the tumor three times at one-week intervals.

[7] abbreviates: 5 mg 5-FU at base of tumor, relative to total tissue area.

Procedure for TSP-1 protein: Western blot analysis was conducted to confirm the expression of TSP-1 protein in the HUVEC (human umbilical vein endothelial cell) cell line.
HUVECs cultured in petri dishes were lysed using a buffer containing 50 mM Tris (pH 8.0), 150 mM NaCl, 1% Nonidet P-40, 0.5% sodium deoxycholate (SDC), 0.1% sodium dodecyl sulfate (SDS), and 1× protease inhibitor cocktail. The lysates were incubated on ice for 30 minutes, followed by centrifugation at 14,000 g for 10 minutes to collect the supernatant.
Protein quantification was performed using a bicinchoninic acid (BCA) protein assay kit (Pierce Chemical, Rockford, IL, USA). A total of 30 μg of protein was subjected to electrophoresis on a 10% SDS-polyacrylamide gel and subsequently transferred onto a nitrocellulose membrane. The membrane was blocked with blocking milk for 1 hour, then incubated with the same TSP-1 antibody used for immunostaining at room temperature for 1 hour. After three washes with Tris buffer containing 0.1% Tween 20 at 15-minute intervals, the membrane was incubated with a secondary antibody specific to the primary antibody at room temperature for 1 hour. The detection was carried out using a chemiluminescent substrate (Amersham Life Science, Arlington Heights, IL, USA).
Protein extracted from HUVECs was used as a positive control.

`O=c1[nH]cc(F)c(=O)[nH]1` [5-FU, 5-fluorouracil]: the TSP-1 expression result with TSP-1 protein is listed as “increased”. In the series with HUVECs [1], the “cytotoxic effect according to pH” value is “significantly greater toxicity under alkaline conditions compared to neutral or acidic 5-FU”. Further, the “pathological changes in subcutaneous muscle layer at injection site (score)” value in series [2] is 0. For the same compound, in the series with HUVECs [3], the “amount of LDH released” value is “increased in a time-dependent manner”. Also, the “Immunopositive area (CD31)” value with CD31 (5 mg 5-FU at base of tumor) turned out to be 257079.525 μm^2. Also, the “Immuno-positive area (%) (CD31)” value with CD31 (setting [7]) stood at 0.54%. For the same compound, in the series on CD31 (5 mg 5-FU), the “stained area (ratio) of CD31 compared to control group” value was “lower; also recorded: smaller”. In addition, in the series on CD31 (5 mg 5-FU, tumor mass), the “distribution of necrotic tissue compared to control group” value is “increased”. In the series with VEGF (5 mg 5-FU at base of tumor), the “Immunopositive area (VEGF)” value is 46077.917 μm^2. Besides, in the series on VEGF (setting [7]), the “Immuno-positive area (%) (VEGF)” value stood at 0.10%. Moreover, the “stained area of VEGF compared to control group” value with VEGF (5 mg 5-FU) was “smaller”.

Take `CNC(=N)NCCC[C@H](N)C(=O)O` [L-NMMA, NG-Monomethyl-L-arginine]: the “cell viability, L-NMMA alone” value with HUVECs [4] is reported as “reduction in cell viability”.

Take `O=c1[nH]cc(F)c(=O)[nH]1` [alkaline 5-FU, 5-fluorouracil]: in series [5], the “tumor size compared to control group that received PBS” value is listed as “reduced” and the “tumor size four weeks after drug administration compared to before injection” value is listed as “decreased”.

Consider “bevacizumab: recombinant humanized monoclonal antibody designed to inhibit vascular endothelial growth factor (VEGF)”, for which, in series [6] (1 mg bevacizumab adjacent to tumor, three times at one-week intervals, P>0.05), the “tumor size four weeks after drug administration compared to before injection” value is recorded as “remained nearly unchanged”. Moreover, the “tumor size in later follow-up” value in [6] (1 mg bevacizumab, months after the four-week reading) was “did not change for the following two months and began to increase in the third month”.
